Among the data in US20240092784A1, “CONDENSED HETEROCYCLIC COMPOUND” (NISSAN CHEMICAL CORPORATION, priority 2020, published 2024) are IC50 values, retold here.

SMILES strings stand for the structures. Structures can show the parent of a compound that is named as a salt.

In the first assay the target is human SPR (Homo sapiens (Human), UniProt P35270). As to the kind of experiment: Evaluation Example 2: Measurement of human SPR inhibitory activity (seven concentrations, sepiapterin absorbance at 420 nm). Format: biochemical. The note with it: Evaluation Example 2, seven concentrations 0.14 nM to 100 nM, 240 minutes at room temperature, read-out: IC50. The method in brief: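 Reactions ran 240 min at room temperature in 100 mM Tris-HCl pH 7.5 with 0.01% BSA. They contained tag-cleaved, E. coli-expressed full-length human SPR (diluted to 150 ng/mL), seven compound concentrations from 0.14 to 100 nM, and sepiapterin/NADPH added as a 120 μM/160 μM solution. Inhibition was calculated from sepiapterin absorbance at 420 nm.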
Sequence of human SPR (P35270 whole entry): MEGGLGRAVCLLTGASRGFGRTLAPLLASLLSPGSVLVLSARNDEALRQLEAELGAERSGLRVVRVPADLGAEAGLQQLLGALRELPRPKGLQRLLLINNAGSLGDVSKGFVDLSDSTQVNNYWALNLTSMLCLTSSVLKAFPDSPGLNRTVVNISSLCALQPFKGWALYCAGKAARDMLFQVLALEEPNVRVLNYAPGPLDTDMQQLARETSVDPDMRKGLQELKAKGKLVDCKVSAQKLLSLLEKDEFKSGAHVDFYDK
For the compound `CC[C@H]1CCCN1C(=O)/C=C/c1c(C)nn2c(O)c(C(=O)NC3CC3)c(=O)n(CC(C)C)c12` [Synthesis Example 640, (S,E)-N-Cyclopropyl-3-(3-(2-ethylpyrrolidin-1-yl)-3-oxoprop-1-en-1-yl)-7-hydroxy-4-isobutyl-2-methyl-5-oxo-4,5-dihydropyrazolo[1,5-a]pyrimidine-6-carboxamide], the IC50 worked out at 1.16 nM.
As for `Nc1nn2c(O)c(C(=O)NC3CC3)c(=O)n(CC3CC3)c2c1/C=C/C(=O)N1CCC(F)(F)CC1` [Synthesis Example 420, (E)-2-Amino-N-cyclopropyl-4-(cyclopropylmethyl)-3-(3-(4,4-difluoropiperidin-1-yl)-3-oxoprop-1-en-1-yl)-7-hydroxy-5-oxo-4,5-dihydropyrazolo[1,5-a]pyrimidine-6-carboxamide hydrochloride], the IC50 amounted to 0.75 nM.
Same read-out and setting: to `CC(C)Cn1c(=O)c(C(=O)NC2CC2)c(O)n2ncc(/C=C/C3(C)CCOCC3)c12` [Synthesis Example 242, (E)-N-Cyclopropyl-7-hydroxy-4-isobutyl-3-(2-(4-methyltetrahydro-2H-pyran-4-yl)vinyl)-5-oxo-4,5-dihydropyrazolo[1,5-a]pyrimidine-6-carboxamide] belongs 1.39 nM; to `Cc1nn2c(O)c(C(=O)NC3CC3)c(=O)n(CC(C)C)c2c1/C=C/C(=O)N1CCCC12CCN(C(C)C)CC2` [Synthesis Example 678, (E)-N-Cyclopropyl-7-hydroxy-4-isobutyl-3-(3-(8-isopropyl-1,8-diazaspiro[4.5]decan-1-yl)-3-oxoprop-1-en-1-yl)-2-methyl-5-oxo-4,5-dihydropyrazolo[1,5-a]pyrimidine-6-carboxamide], 1.17 nM.
Consider `Cc1nn2c(O)c(C(=O)NC3CC3)c(=O)n(CC(C)C)c2c1/C=C/C(=O)N1CCC[C@@H]1C(C)C` [Synthesis Example 629, (R,E)-N-Cyclopropyl-7-hydroxy-4-isobutyl-3-(3-(2-isopropylpyrrolidin-1-yl)-3-oxoprop-1-en-1-yl)-2-methyl-5-oxo-4,5-dihydropyrazolo[1,5-a]pyrimidine-6-carboxamide], for which the IC50 is 1.14 nM.
Regarding `CC(C)Cn1c(=O)c(C(=O)NC2CC2)c(O)n2ncc(/C=C/C(=O)N3CCC[C@H](CO)C3)c12` [compound 528, (S,E)-N-Cyclopropyl-7-hydroxy-3-(3-(3-(hydroxymethyl)piperidin-1-yl)-3-oxoprop-1-en-1-yl)-4-isobutyl-5-oxo-4,5-dihydropyrazolo[1,5-a]pyrimidine-6-carboxamide], the IC50 was 0.85 nM.
Still for that read-out and setting: in the case of `CC(C)(C)Cn1c(=O)c(C(=O)NC2CC2)c(O)n2nc(-c3cc(C#N)cnc3N)cc12` [Synthesis Example 291, 2-(2-Amino-5-cyanopyridin-3-yl)-N-cyclopropyl-7-hydroxy-4-neopentyl-5-oxo-4,5-dihydropyrazolo[1,5-a]pyrimidine-6-carboxamide] it was 6.42 nM; in that of `CC(C)Cn1c(=O)c(C(=O)NC2CC2)c(O)n2nc(N)c(/C=C/C3CCCCC3)c12` [Synthesis Example 441, (E)-2-Amino-3-(2-cyclohexylvinyl)-N-cyclopropyl-7-hydroxy-4-isobutyl-5-oxo-4,5-dihydropyrazolo[1,5-a]pyrimidine-6-carboxamide], 4.74 nM.
Take `CC(C)(C)Cn1c(=O)c(C(=O)NC2CC2)c(O)n2nc(-c3c[nH]nc3N)cc12` [Synthesis Example 317, 2-(3-Amino-1H-pyrazol-4-yl)-N-cyclopropyl-7-hydroxy-4-neopentyl-5-oxo-4,5-dihydropyrazolo[1,5-a]pyrimidine-6-carboxamide]: the IC50 amounted to 1.34 nM.
On the same count and under the same terms, in the case of `CC(C)(C)Cn1c(=O)c(C(=O)NC2CC2)c(O)n2nc(Nc3cnc(F)cn3)cc12` [Synthesis Example 322, N-Cyclopropyl-2-((5-fluoropyrazin-2-yl)amino)-7-hydroxy-4-neopentyl-5-oxo-4,5-dihydropyrazolo[1,5-a]pyrimidine-6-carboxamide] it was 0.98 nM; in that of `Cn1cc(-c2cc3n(CC(C)(C)C)c(=O)c(C(=O)NC4CC4)c(O)n3n2)c(C(N)=O)n1` [Synthesis Example 310, 2-(3-Carbamoyl-1-methyl-1H-pyrazol-4-yl)-N-cyclopropyl-7-hydroxy-4-neopentyl-5-oxo-4,5-dihydropyrazolo[1,5-a]pyrimidine-6-carboxamide], 2.47 nM; in that of `CC(C)Cn1c(=O)c(C(=O)NC2CC2)c(O)n2ncc(/C=C/C(=O)N3CCCC3)c12` [compound 452, (E)-N-Cyclopropyl-7-hydroxy-4-isobutyl-5-oxo-3-(3-oxo-3-(pyrrolidin-1-yl)prop-1-en-1-yl)-4,5-dihydropyrazolo[1,5-a]pyrimidine-6-carboxamide], 0.83 nM.
Turning to `C[C@H]1COCCN1C(=O)/C=C/c1cnn2c(O)c(C(=O)NC3CC3)c(=O)n(CC3(F)CC3)c12` [Synthesis Example 379, (S,E)-N-Cyclopropyl-4-((1-fluorocyclopropyl)methyl)-7-hydroxy-3-(3-(3-methylmorpholino)-3-oxoprop-1-en-1-yl)-5-oxo-4,5-dihydropyrazolo[1,5-a]pyrimidine-6-carboxamide], the IC50 turned out to be 0.7 nM.
Consider `COC(C)(C)Cn1c(=O)c(C(=O)NC2CC2)c(O)n2nc(Br)cc12` [Synthesis Example 270, 2-Bromo-N-cyclopropyl-7-hydroxy-4-(2-methoxy-2-methylpropyl)-5-oxo-4,5-dihydropyrazolo[1,5-a]pyrimidine-6-carboxamide], for which the IC50 worked out at 1.16 nM.
Consider `CC(C)(C)Cn1c(=O)c(C(=O)NC2CC2)c(O)n2nc(NC(N)=O)c(/C=C/C(=O)N3CCOCC3)c12` [Synthesis Example 424, (E)-N-Cyclopropyl-7-hydroxy-3-(3-morpholino-3-oxoprop-1-en-1-yl)-4-neopentyl-5-oxo-2-ureido-4,5-dihydropyrazolo[1,5-a]pyrimidine-6-carboxamide], for which the IC50 was determined as 0.67 nM.
As to `COC1(C)CCN(C(=O)/C=C/c2cnn3c(O)c(C(=O)NC4CC4)c(=O)n(CC(C)C)c23)CC1` [compound 470], the IC50 is 0.88 nM.
Regarding `CC(C)Cn1c(=O)c(C(=O)NC2CC2)c(O)n2ncc(/C=C/C(=O)N3[C@@H](C)COC[C@@H]3C)c12` [compound 457, N-Cyclopropyl-3-((E)-3-((3S,5S)-3,5-dimethylmorpholino)-3-oxoprop-1-en-1-yl)-7-hydroxy-4-isobutyl-5-oxo-4,5-dihydropyrazolo[1,5-a]pyrimidine-6-carboxamide], the IC50 stood at 0.81 nM.

The same assay, now with this note: sepiapterin absorbance, Table 41, read-out: concentration at 50% inhibition of human SPR (IC50).
In the case of `CC(C)Cn1c(=O)c(C(=O)NC2CC2)c(O)n2ncc(/C=C/C(=O)N3CCOc4ccncc43)c12` [Synthesis Example 738, (E)-N-Cyclopropyl-3-(3-(2,3-dihydro-4H-pyrido[4,3-b][1,4]oxazin-4-yl)-3-oxoprop-1-en-1-yl)-7-hydroxy-4-isobutyl-5-oxo-4,5-dihydropyrazolo[1,5-a]pyrimidine-6-carboxamide], the IC50 amounted to 1.39 nM.
As for `CC(C)Cn1c(=O)c(C(=O)NC2CC2)c(O)n2ncc(/C=C/C(=O)N3CCCC34CCN(C)CC4)c12` [Synthesis Example 736, (E)-N-Cyclopropyl-7-hydroxy-4-isobutyl-3-(3-(8-methyl-1,8-diazaspiro[4.5]decan-1-yl)-3-oxoprop-1-en-1-yl)-5-oxo-4,5-dihydropyrazolo[1,5-a]pyrimidine-6-carboxamide], the IC50 was determined as 1.07 nM.
